From ChEMBL document CHEMBL1132881, “First pharmacophoric hypothesis for 5-HT7 antagonism” (Bioorg Med Chem Lett, 2000)

Assays:
[1] = target: T1, 5-hydroxytryptamine receptor 7 (Rattus norvegicus, UniProt P32305); experiment: Binding affinity against 5-hydroxytryptamine 7 receptor using [3H]-5-CT in rat hypothalamus membranes; assay type: cell membranes, Membrane
[2] = target: T1, 5-hydroxytryptamine receptor 7; experiment: Binding affinity towards 5-hydroxytryptamine 7 receptor
[3] = target: T2, 5-hydroxytryptamine receptor 7 (Homo sapiens, UniProt P34969); experiment: Binding affinity towards human recombinant 5-hydroxytryptamine 7 receptor using [3H]5-CT as radioligand
[4] = target: T2, 5-hydroxytryptamine receptor 7; experiment: Binding affinity towards cloned human 5-hydroxytryptamine 7 receptor in HEK 293 cells; assay type: cell-based, HEK293

T2 sequence (P34969 whole entry): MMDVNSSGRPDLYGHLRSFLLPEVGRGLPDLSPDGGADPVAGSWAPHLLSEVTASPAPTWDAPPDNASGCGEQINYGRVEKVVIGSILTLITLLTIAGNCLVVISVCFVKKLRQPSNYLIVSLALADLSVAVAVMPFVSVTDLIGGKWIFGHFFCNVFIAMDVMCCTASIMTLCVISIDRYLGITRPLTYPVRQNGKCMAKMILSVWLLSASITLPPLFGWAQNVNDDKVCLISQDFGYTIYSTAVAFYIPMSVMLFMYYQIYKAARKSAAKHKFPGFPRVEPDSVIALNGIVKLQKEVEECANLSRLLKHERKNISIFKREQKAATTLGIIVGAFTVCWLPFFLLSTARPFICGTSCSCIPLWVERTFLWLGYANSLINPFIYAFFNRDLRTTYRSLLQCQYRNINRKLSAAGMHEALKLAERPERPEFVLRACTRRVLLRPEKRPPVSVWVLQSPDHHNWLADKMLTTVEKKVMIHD
T1 sequence (P32305 whole entry): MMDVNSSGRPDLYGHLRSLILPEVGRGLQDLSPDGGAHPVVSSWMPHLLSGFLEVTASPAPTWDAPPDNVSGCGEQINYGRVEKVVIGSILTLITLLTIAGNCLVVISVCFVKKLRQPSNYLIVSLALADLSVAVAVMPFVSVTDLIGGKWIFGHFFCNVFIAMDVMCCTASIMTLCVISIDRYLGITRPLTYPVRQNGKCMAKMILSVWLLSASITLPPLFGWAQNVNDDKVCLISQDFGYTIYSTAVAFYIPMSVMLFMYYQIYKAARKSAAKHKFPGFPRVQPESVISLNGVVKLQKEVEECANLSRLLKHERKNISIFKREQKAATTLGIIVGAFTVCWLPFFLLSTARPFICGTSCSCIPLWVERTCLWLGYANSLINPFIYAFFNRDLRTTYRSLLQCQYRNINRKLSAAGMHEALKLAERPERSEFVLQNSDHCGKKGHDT

Compound	Ki [1] [nM]	also measured
COc1ccccc1N1CCN(CCCCCN2c3cccc4cccc(c34)S2(=O)=O)CC1	251	
CC1CCN(CCCCN2c3cccc4cccc(c34)S2(=O)=O)CC1	> 10000	
O=S1(=O)c2cccc3cccc(c23)N1CCCCN1CCCCC1	> 10000	
CC(C)C1CCN(CCCCN2C(=O)c3cccc4cccc2c34)CC1	200	
O=S1(=O)c2cccc3cccc(c23)N1CCCCCN1CCN(c2ccccc2)CC1	200	
COc1ccccc1N1CCN(CCCCCCN2c3cccc4cccc(c34)S2(=O)=O)CC1	200	
CN1CCN(CCCCN2c3cccc4cccc(c34)S2(=O)=O)CC1	> 10000	
CCN(CC)C(=O)[C@@H]1C=C2c3cccc4[nH]c(Br)c(c34)C[C@H]2N(C)C1		Ki [2]: 10 nM
Cc1nc2sccn2c(=O)c1CCN1CCC(=C(c2ccc(F)cc2)c2ccc(F)cc2)CC1 [RITANSERIN]		Ki [2]: 15.8 nM
CC1CCN(CCCCCN2c3cccc4cccc(c34)S2(=O)=O)CC1	> 10000	
O=C1c2cccc3cccc(c23)N1CCCCCN1CCN(c2ccccc2)CC1 [UCM-5600]	79.4	
O=C1Nc2cccc3c2C1(CCCCN1CCC(c2ccccc2)CC1)CCC3 (stereo not drawn)		Ki [3]: 2 nM
N#Cc1ccccc1N1CCN(CCCCC23CCCc4cccc(c42)NC3=O)CC1 (stereo not drawn)		Ki [3]: 3.98 nM
O=C1Nc2cccc3c2C1(CCCN1CCN(c2ccccc2)CC1)CCC3 (stereo not drawn)		Ki [3]: 5.01 nM
O=C1Nc2cccc3c2C1(CCCCN1CCN(c2ccccc2)CC1)CCC3 (stereo not drawn)		Ki [3]: 3.16 nM
Cc1cccc(S(=O)(=O)N2CCC[C@@H]2CCN2CCC(C)CC2)c1 [SB-258741]		Ki [2]: 3.16 nM
C[C@H]1CCCN(CC[C@H](C)N(C)S(=O)(=O)c2cccc3ccccc23)C1		Ki [4]: 10000 nM
O=C1c2cccc3cccc(c23)N1CCCCN1CCCCC1	> 10000	
O=C1Nc2cccc3c2C1(CCN1CCN(c2ccccc2)CC1)CCC3 (stereo not drawn)		Ki [3]: 100 nM
O=C1Nc2cccc3c2C1(CCCCN1CCN(C2CCCCC2)CC1)CCC3 (stereo not drawn)		Ki [4]: 10000 nM
O=C1Nc2cccc3c2C1(CCCCN1CCN(c2ccccn2)CC1)CCC3 (stereo not drawn)		Ki [3]: 2 nM
COc1ccccc1N1CCN(CCCCN2C(=O)c3cccc4cccc2c34)CC1	63.1	
COc1ccccc1N1CCN(CCCCCN2C(=O)c3cccc4cccc2c34)CC1	100	
COc1ccccc1N1CCN(CCCCN2c3cccc4cccc(c34)S2(=O)=O)CC1	200	
CN1CCN(CCCCN2C(=O)c3cccc4cccc2c34)CC1	> 10000	
CC1CCN(CCCCN2C(=O)c3cccc4cccc2c34)CC1	> 1000	
COc1ccccc1N1CCN(CCCCC23CCCc4cccc(c42)NC3=O)CC1 (stereo not drawn)		Ki [3]: 5.01 nM
CN1C[C@H](CNC(=O)OCc2ccccc2)C[C@@H]2c3cccc4c3c(cn4C)C[C@H]21 [METERGOLINE]		Ki [2]: 6.31 nM
